Measurements from paper PMC4432651, “Dynamic interplay between catalytic and lectin domains of GalNAc-transferases modulates protein O-glycosylation” (Nature Communications, 2015).
Where a SMILES comes first, the peptide text is derived from it. The star is where a group is joined. αGalNAc = CC(=O)N[C@@H]1[C@@H](O)[C@@H](O)[C@@H](CO)O[C@@H]1*

Molecular target: T1, GalNAc-T2 (Homo sapiens, UniProt Q10471)
T1 construct: made in house
Assay: Time-lapse AFM of single GalNAc-T2 molecules with ligands
Conditions: GalNAc-T2 2.0 nM on mica, PBS pH 7.4, 20 °C
Experimental: AFM measurements were performed using a MultiMode 8 AFM system (Bruker). […] Additional details are in Supplementary Methods. […]
simulations were performed with the acceptor amino acid – UDPGalNAc distance and the RMSD of the Cα peptide carbon atoms as collective variables.
The values of the height and width of the Gaussian-like biasing potential were selected as 1.0 kcal·mol -1 and 0.25 Å, respectively. A temperature window of ΔT = 25000 K for the well-tempered algorithm was used together with a deposition time of 1 ps. The simulation was continued until the system completely explored the free energy landscape several times which, in terms of the simulation time, corresponds to approximately 100 ns for each metadynamics run.
Atomic Force Microscopy Imaging
In Tapping Mode image operation the cantilever driven by a piezoelectric actuator vibrates near its resonance frequency. Upon approaching the sample, the tip briefly touches the surface at the bottom of each swing, resulting in a decrease in oscillation amplitude. […]
AFM scanning requires the sample be immobilized on a nanoflat surface not to be swept away. […] The concentration of the protein incubated on the mica sheets was suitable to get isolated features that could be analyzed individually. […]
GalNAc-T2 presents a net positive charge at the working pH conditions due to its theoretical isoelectric point of 8.3. The immobilization of enzymes on mica was previously evaluated observing clearly they preserve the enzymatic activity5.
To determine how the ligands affect the conformational dynamics of GalNAc-T2, the enzyme was also incubated with ligands for 10 min under mild stirring at room temperature. […] AFM images were further analyzed by using the WSxM software6. […] At least 10 images of 10 different areas of 500 nm2 were analyzed for every sample and environment. Furthermore, each feature or associate was analyzed in detail with the zoom function of the WSxM program, performed without losing image information and or the discarding of artifacts. […]

T1 sequence (Q10471 75-571 limits assumed): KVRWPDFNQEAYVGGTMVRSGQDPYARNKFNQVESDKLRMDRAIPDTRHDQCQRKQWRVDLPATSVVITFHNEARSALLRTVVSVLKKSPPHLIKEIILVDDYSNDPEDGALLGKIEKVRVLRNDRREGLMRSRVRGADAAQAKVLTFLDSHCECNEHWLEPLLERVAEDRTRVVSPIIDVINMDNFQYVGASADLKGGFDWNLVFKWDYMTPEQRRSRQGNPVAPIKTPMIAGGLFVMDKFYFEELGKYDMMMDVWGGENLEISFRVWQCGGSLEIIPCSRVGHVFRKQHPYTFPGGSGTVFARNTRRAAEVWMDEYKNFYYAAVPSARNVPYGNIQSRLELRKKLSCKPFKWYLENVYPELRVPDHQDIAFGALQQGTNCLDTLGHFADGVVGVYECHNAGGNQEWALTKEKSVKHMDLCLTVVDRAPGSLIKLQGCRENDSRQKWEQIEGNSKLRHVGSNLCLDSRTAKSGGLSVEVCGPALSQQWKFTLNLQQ

| SMILES | conformational states of GalNAc-T2 observed (peptide alone or in combination with UDP/Mn+2, peptides 10.0 nM) | conformational states of GalNAc-T2 observed (in the presence of Mn+2, UDP, UDP-GalNAc and MnCl2 20.0 nM) |
| --- | --- | --- |
| CC(=O)NCC(=O)N[C@H](C(=O)N[C@H](C(=O)N1CCC[C@H]1C(=O)N[C@@H](CO)C(=O)N1CCC[C@H]1C(=O)N[C@H](C(=O)N1CCC[C@H]1C(=O)N[C@H](C(=O)N[C@H](C(=O)N[C@@H](CO)C(=O)N[C@H](C(=O)N[C@H](C(=O)N[C@@H](CO)C(=O)N[C@@H](C)C(N)=O)[C@@H](C)O[C@H]1O[C@H](CO)[C@H](O)[C@H](O)[C@H]1NC(C)=O)[C@@H](C)O)[C@@H](C)O)[C@@H](C)O)C(C)C)[C@@H](C)O)[C@@H](C)O [MUC5AC-13] (Ac-GTTPSPVPTTSTT(αGalNAc)SA-NH2; N-terminus assumed) | three different conformational states are present |  |
| O=c1ccn([C@@H]2O[C@H](COP(=O)(O)OP(=O)(O)O)[C@@H](O)[C@H]2O)c(=O)[nH]1 [UDP, uridine diphosphate, reference compound] |  | either the very compact or the compact structure |
